Where “and” joins values, the source holds several entries; their conditions need not be identical. Equal entries are not always repeated.
Tests used:
Assay type in all cases: cell-based, human
K562 cells = experiment: MTT cell viability assay; details: MTT, 7 days
Description: (§1) Human leukemia cells K562, MV4;11 and RS4;11 (purchased from ATCC) and KOPN8, MOLM13 (purchased from DSMZ) were cultured in RPMI 1640 (Invitrogen) supplemented with 10% heat inactivated (h.i.) FBS and 1% penicillin/streptomycin (Invitrogen). SET2 cells (purchased from DSMZ) were cultured in RPMI 1640 supplemented with 20% h.i. FBS and 1% penicillin/streptomycin. Cells were plated at 1 × 10^5 to 2 × 10^5 cells/mL depending on cell line and treated with 0.25% DMSO or varying concentrations of compounds and incubated at 37 °C, 5% CO2 incubator for 7 days. Media was changed on day 3 or 4 and compounds were resupplied. […] Cell suspensions (100 μL) were transferred to the 96-well plates for each sample in quadruplicate at the time of media change. At day 7, 10 µL of MTT reagent (M6494, Molecular Probes™) was added to each well of the 96 well plate and incubated at 37 °C for 4 h. The formazan was then solubilized by adding 100 µL acidified 10% SDS solution and incubated at 37 °C overnight. Plates were read for absorbance at 570 nm using a PHERAstar BMG microplate reader. The experiments were performed two times in quadruplicates with calculation of mean and SD for each condition. Data were analyzed in Prism 8.0.0 to obtain GI50 values.
(§2) Supplementary Figure 7. […] (a)
(§3) Titration curves from the MTT cell viability assay performed after 4, 7, and 11 (or 10) days of
(§4) Titration curves from the MTT cell viability assay performed after 7 days of treatment of KOPN8 ,
(§5) MOLM13 and MV4;11 cell lines harboring MLL1 translocation (MLL1-r) or K562 cell line (non-
(§6) Representative graphs are shown
(§7) from two independent MTT experiments performed for each cell line. GI50 values correspond to […]

KOPN8 cells [1] = experiment: MTT cell viability assay; details: MTT, 7 days
Description: as §1, §2, §3, §4, §5, §6, §7

RS4;11 cells = experiment: MTT cell viability assay; details: 7 days
Description: as §1

SET2 cells = experiment: MTT cell viability assay; details: MTT, 7 days
Description: as §1

KOPN8 cells [2] = experiment: Annexin V apoptosis assay (flow cytometry); details: 7 days
[3] = system: MLL fusion target genes in MOLM13 cells; experiment: Real time qRT-PCR gene expression
Description: 0.5 × 10^6 – 3 × 10^6 cells from each sample were collected at days 7 or 8 of treatment, centrifuged at 211 xg, and RNA was extracted according to the RNeasy Mini Kit protocol (74106, Qiagen). Extracted RNA was quantified using Nanodrop 2000 UV-Vis spectrophotometer and 0.5–1 µg of total RNA was reverse transcribed into cDNA using High-Capacity cDNA Reverse Transcription Kit (4368814, Applied Biosystems™) according to the manufacturer’s protocol. Real-time PCR was performed using the CFX96 Touch Real-Time PCR Detection System (Bio-Rad). TaqMan Gene Expression Master Mix and TaqMan Gene Expression Assays were purchased from Applied Biosystems. Relative quantification of each gene transcript was carried out using the comparative Ct method as described in the Applied Biosystems User Bulletin no. 2. TaqMan Gene Expression Assays were used: HPRT1: Hs02800695_m1, DLX2: Hs00269993_m1, FLT3: Hs00174690_m1, HOXA9: Hs00365956_m1, MEF2C: Hs00231149_m1, MEIS1: Hs00180020_m1, MNDA: Hs00935905_m1.
Supplementary Figure 10. Effect of AS-nc on gene expression in MLL leukemia cells. (a, b) Quantitative RT-PCR performed in MOLM13 cells (a) or MV4;11 cells (b) after 7 days of treatment with AS-nc. Gene expression was normalized to HPRT1 and referenced to the DMSO treated cells. Representative data from two independent experiments, each performed in triplicates, […]

[4] = system: MLL leukemia cells (MV4;11, MOLM13, KOPN8, RS4;11); experiment: MTT cell viability assay, MLL leukemia cells as a group; details: 7 days

Structure (SMILES): CN1CC(C(=O)NCc2ccc3c(-c4cccc(C(N)=O)c4)cn(C4CCN(S(=O)(=O)C(F)(F)F)CC4)c3c2)C1 [AS-nc]
- % activity K562 (K562 cells; log[compound] -4.92082): 87.2356% and 88.3293% and 79.0617% and 81.4793%
- % activity K562 (K562 cells; log[compound] -5.22185): 96.906% and 94.8338% and 87.581% and 99.8993%
- % activity K562 (K562 cells; log[compound] -5.52288): 91.5527% and 87.8688% and 87.2356% and 88.1566%
- % activity K562 (K562 cells; log[compound] -5.82391): 106.979% and 101.569% and 98.9783% and 92.4737%
- % activity K562 (K562 cells; log[compound] -6.12494): 95.2367% and 84.818% and 86.8902% and 88.0414%
- % activity K562 (K562 cells; log[compound] -6.42597): 88.8473% and 100.475% and 98.4026% and 99.0934%
- % activity KOPN-8 (KOPN8 cells [1]; log[compound] -4.92082): 88.0603% and 89.0658% and 78.5086% and 67.1135%
- % activity KOPN-8 (KOPN8 cells [1]; log[compound] -5.22185): 96.2715% and 87.8928% and 88.5631% and 98.2824%
- % activity KOPN-8 (KOPN8 cells [1]; log[compound] -5.52288): 93.4227% and 96.9418% and 95.7687% and 88.2279%
- % activity KOPN-8 (KOPN8 cells [1]; log[compound] -5.82391): 91.9145% and 89.5685% and 90.7415% and 92.2497%
- % activity KOPN-8 (KOPN8 cells [1]; log[compound] -6.12494): 92.2497% and 92.4173% and 96.2715% and 88.7306%
- % activity KOPN-8 (KOPN8 cells [1]; log[compound] -6.42597): 96.439% and 101.969% and 107.164% and 94.4282%
- % activity RS4;11 (RS4;11 cells; log[compound] -4.92082): 85.5125% and 87.6993% and 89.3394% and 75.672%
- % activity RS4;11 (RS4;11 cells; log[compound] -5.22185): 105.376% and 104.647% and 93.5307% and 91.5262%
- % activity RS4;11 (RS4;11 cells; log[compound] -5.52288): 102.096% and 100.638% and 93.713% and 78.4055%
- % activity RS4;11 (RS4;11 cells; log[compound] -5.82391): 120.137% and 113.941% and 76.4009% and 77.1298%
- % activity RS4;11 (RS4;11 cells; log[compound] -6.12494): 99.7267% and 104.647% and 93.8952%
- % activity RS4;11 (RS4;11 cells; log[compound] -6.42597): 106.287% and 103.553% and 98.8155% and 91.344%
- % activity SET2 (SET2 cells; log[compound] -4.92082): 98.5542% and 101.644% and 102.951% and 102.436%
- % activity SET2 (SET2 cells; log[compound] -5.22185): 96.2567% and 98.5146% and 98.9107% and 94.9495%
- % activity SET2 (SET2 cells; log[compound] -5.52288): 90.1168% and 94.8703% and 93.8007% and 101.723%
- % activity SET2 (SET2 cells; log[compound] -5.82391): 80.8081% and 86.1953% and 84.7693% and 93.5235%
- % activity SET2 (SET2 cells; log[compound] -6.12494): 93.2858% and 94.8703% and 102.04% and 107.625%
- % activity SET2 (SET2 cells; log[compound] -6.42597): 105.803% and 101.208% and 102.278% and 90.711%
- KOPN8 % Annexin V(+) cells (KOPN8 cells [2]; 2 uM): 6.32% and 5.25% and 5.31%
- KOPN8 % Annexin V(+) cells (KOPN8 cells [2]; 4 uM): 7.36% and 6.41% and 6.28%
- KOPN8 % Annexin V(+) cells (KOPN8 cells [2]; 6 uM): 7.96% and 6.03% and 6.25%
- MOLM13 fold change vs DMSO, DLX2 ([3]; AS-nc 2 uM): 1.06 and 1.01 and 0.76
- MOLM13 fold change vs DMSO, FLT3 ([3]; AS-nc 2 uM): 1.07 and 0.95 and 0.92
- MOLM13 fold change vs DMSO, HOXA9 ([3]; AS-nc 2 uM): 1.01 and 1.09 and 0.84
- MOLM13 fold change vs DMSO, MEF2C ([3]; AS-nc 2 uM): 0.98 and 1.02 and 0.94
- MOLM13 fold change vs DMSO, MEIS1 ([3]; AS-nc 2 uM): 1.03 and 1.08 and 0.97
- MOLM13 fold change vs DMSO, MNDA ([3]; AS-nc 2 uM): 1.45 and 1.05 and 1.01
- MOLM13 fold change vs DMSO, DLX2 ([3]; AS-nc 4 uM): 1.02 and 0.96 and 0.71
- MOLM13 fold change vs DMSO, FLT3 ([3]; AS-nc 4 uM): 1.03 and 0.86 and 0.96
- MOLM13 fold change vs DMSO, HOXA9 ([3]; AS-nc 4 uM): 0.95 and 1 and 1.06
- MOLM13 fold change vs DMSO, MEF2C ([3]; AS-nc 4 uM): 1 and 0.95 and 1.01
- MOLM13 fold change vs DMSO, MEIS1 ([3]; AS-nc 4 uM): 0.97 and 1.1 and 0.95
- MOLM13 fold change vs DMSO, MNDA ([3]; AS-nc 4 uM): 1.29 and 1.57 and 1.44
- MOLM13 fold change vs DMSO, DLX2 ([3]; AS-nc 6 uM): 1.04 and 1 and 0.77
- MOLM13 fold change vs DMSO, FLT3 ([3]; AS-nc 6 uM): 1.07 and 0.95 and 0.88
- MOLM13 fold change vs DMSO, HOXA9 ([3]; AS-nc 6 uM): 1.03 and 0.88 and 0.9
- MOLM13 fold change vs DMSO, MEF2C ([3]; AS-nc 6 uM): 1.03 and 0.94 and 0.96
- MOLM13 fold change vs DMSO, MEIS1 ([3]; AS-nc 6 uM): 0.86 and 1.09 and 0.93
- MOLM13 fold change vs DMSO, MNDA ([3]; AS-nc 6 uM): 1.31 and 1.06 and 0.93
- expression of MLL fusion target genes (MEF2C, DLX2, FLT3, HOXA9) ([3]; MOLM13 and MV4;11): no changes
- effect on MLL leukemia cells (viability) [4]: no or much weaker effects
